Laboratory results from patent US4211772A, “Benzopyran glycoside acetals and ketals” (Laboratoires Sarget, priority 1977, dated 1980).
In brackets after ≈: the same amount, converted by molar mass. Like-named read-outs stand apart in the source and are kept apart here.

Tests used:
aldose reductase [1] = details: prior art statement; cited from earlier work
COMT = biological target: T1, COMT (Rattus norvegicus, UniProt P22734); assay: Inhibition of COMT in vitro (enzyme from rat liver, 4-nitrocatechol substrate); type: biochemical; details: in dimethylsulfoxide solution, read-out: percentages of inhibition (COMT)
T1 construct: The enzyme is extracted from rat liver; from tissue; host or cells: rat liver
T1 sequence (P22734 1-221 isoform P22734-2): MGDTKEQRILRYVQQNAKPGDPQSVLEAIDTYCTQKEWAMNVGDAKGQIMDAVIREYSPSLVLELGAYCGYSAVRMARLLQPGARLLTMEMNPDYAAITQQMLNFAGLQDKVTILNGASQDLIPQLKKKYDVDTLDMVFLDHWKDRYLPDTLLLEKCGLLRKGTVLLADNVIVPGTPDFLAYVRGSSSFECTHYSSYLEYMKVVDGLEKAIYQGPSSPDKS
Experimental: Inhibition of COMT in vitro The enzyme is extracted from rat liver by the method described by Axelrod et al, J. Biol. Chem., 233, 702(1958); its activity is measured in the presence of S-adenosyl methionine and using as substrate 4-nitrocatechol by the method described by Lee et al, J. Pharm. Sci., 66(7), 986(1977). The quantity of 4-nitrocatechol consumed was determined spectrophotometrically at 520 nm in alkaline medium.

Solubilities in water = type: physicochemical; details: water
Aldose Reductase [2] = biological target: T2, Aldose Reductase (Bos taurus, UniProt P16116); assay: Inhibition of aldose reductase in vitro (enzyme from beef eye lenses, glyceraldehyde substrate); type: biochemical; details: 5.10^-6 mole/l, in DMF solution
T2 construct: The enzyme is extracted from beef eye lenses; from tissue; host or cells: beef eye lenses
Excerpt: Inhibition of Aldose Reductase In Vitro
The reoxidation of NADPH coupled to the enzymatic reaction was followed spectrophotometrically at 340 nm.

[3] = i.p. toxicity in Swiss EOPS mice, mortality at 14 days; details: mouse, in vivo, ip, DMSO solution at 1/2, read-out: percentages of mortality at the end of 14 days
Experimental: The i.p. toxicities of certain compounds of the present invention were determined using male and female Swiss EOPS mice for administrations in DMSO solution at 1/2 under a volume of P/100.

capillary permeability = assay: Capillaroprotecting effects: capillary permeability; type: in vivo, conventional male Wistar rats
Experimental: Capillaroprotecting effects
The capillary permeability was determined by the method of Charlier et al, Arch. Inter. Physiol.

carragenin edema = assay: Anti-inflammatory activity: carragenin edema test; type: in vivo; details: Rattus norvegicus, ip, substantially alkaline pH solution, read-out: % inhibition of carragenin edema; for inhibition in vivo at 100 mg/kg: 100 mg/kg i.p.; for inhibition in vivo at 200 mg/kg: 200 mg/kg i.p.; for inhibition in vivo at 300 mg/kg: 300 mg/kg i.p.
In short: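 Male Wistar EOPS rats receive 0.1 ml of 5% carragenin suspension in physiological serum into the hind-paw metatarsal muscle, with test substance given i.p. in neutralized solution at the same time. Paw edema is measured by plethysmometry at several times after carragenin and reported as % inhibition against pH-matched physiological serum controls.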

Which “inhibition of aldose reductase in vitro (in words)” value (“inhibition of aldose reductase” for short) (aldose reductase [1]) does the source give for `C[C@@H]1O[C@@H](OC[C@H]2O[C@@H](Oc3c(-c4ccc(O)c(O)c4)oc4cc(OCCO)cc(O)c4c3=O)[C@H](O)[C@@H](O)[C@@H]2O)[C@H](O)[C@H](O)[C@H]1O` [7-O-hydroxyethyl rutin] here?
Its value is “practically inactive”.

What does the source list for `C[C@@H]1O[C@@H](OC[C@H]2O[C@@H](Oc3c(-c4ccc(O)c(O)c4)oc4cc(O)cc(O)c4c3=O)[C@H](O)[C@@H](O)[C@@H]2O)[C@H](O)[C@H](O)[C@H]1O` [Rutin, rutin, reference compound]?
inhibition of aldose reductase in vitro (in words) (aldose reductase [1]): inhibits aldose reductase in vitro; inhibition at 1000 µM (COMT; 10^-3 mole/l): 63 to 68%; inhibition at 10 µM (COMT; 10^-5 mole/l): 13%; solubility (Solubilities in water): 120 µg/mL (≈ 197 µM); percentages of inhibition (aldose reductase) (Aldose Reductase [2]): 0%

Which results are given for `COc1ccc(C2CC(=O)c3c(O)cc(O[C@@H]4O[C@H](CO[C@@H]5O[C@@H](C)[C@H](O)[C@H]6OC(C)(C)O[C@@H]56)[C@@H](O)[C@H](O)[C@H]4O)cc3O2)cc1O` (stereo partly drawn) [No. 18, 7-O-(2,3-O,O-isopropylidene-6-α-L-rhamnosyl-β-D-glucosyl)hesperitin]?
solubility (Solubilities in water; read-out: Solubilities in water): 900 µg/mL (≈ 1380 µM); mortality at 336 h ([3]; 1000 mg/kg i.p.): 0%; mortality at 336 h ([3]; 2000 mg/kg i.p.): 0%; percentage reduction of capillary permeability (capillary permeability; 10 mg/kg i.p.): 24%; percentage reduction of capillary permeability (capillary permeability; 50 mg/kg i.p.): 21%; percentage reduction of capillary permeability (capillary permeability; 75 mg/kg i.p.): 8%; inhibition in vivo at 100 mg/kg (carragenin edema; 1/2 h): 0%; inhibition in vivo at 200 mg/kg (carragenin edema; 1/2 h): 0%; inhibition in vivo at 300 mg/kg (carragenin edema; 1/2 h): 0%; inhibition in vivo at 100 mg/kg (carragenin edema; 1 h, 1 h 1/2): 17%; inhibition in vivo at 100 mg/kg (carragenin edema; 1 h, 1 h): 0%; inhibition in vivo at 200 mg/kg (carragenin edema; 1 h, 1 h 1/2): 39%; inhibition in vivo at 200 mg/kg (carragenin edema; 1 h, 1 h): 18%; inhibition in vivo at 300 mg/kg (carragenin edema; 1 h, 1 h 1/2): 27%; inhibition in vivo at 300 mg/kg (carragenin edema; 1 h, 1 h): 0%; inhibition in vivo at 100 mg/kg (carragenin edema; 2 h, 2 h): 16%; inhibition in vivo at 200 mg/kg (carragenin edema; 2 h, 2 h): 42%; inhibition in vivo at 300 mg/kg (carragenin edema; 2 h, 2 h): 27%; inhibition in vivo at 100 mg/kg (carragenin edema; 3 h, 3 h): 13%; inhibition in vivo at 200 mg/kg (carragenin edema; 3 h, 3 h): 46%; inhibition in vivo at 300 mg/kg (carragenin edema; 3 h, 3 h): 21%; inhibition in vivo at 100 mg/kg (carragenin edema; 4 h, 4 h): 20%; inhibition in vivo at 200 mg/kg (carragenin edema; 4 h, 4 h): 52%; inhibition in vivo at 300 mg/kg (carragenin edema; 4 h, 4 h): 26%; inhibition in vivo at 100 mg/kg (carragenin edema; 5 h, 5 h): 21%; inhibition in vivo at 200 mg/kg (carragenin edema; 5 h, 5 h): 50%; inhibition in vivo at 300 mg/kg (carragenin edema; 5 h, 5 h): 16%; inhibition in vivo at 100 mg/kg (carragenin edema; 6 h, 6 h): 27%; inhibition in vivo at 200 mg/kg (carragenin edema; 6 h, 6 h): 55%; inhibition in vivo at 300 mg/kg (carragenin edema; 6 h, 6 h): 16%

For `C[C@@H]1O[C@@H](OC[C@H]2O[C@@H](Oc3c(-c4ccc(OCCO)c(OCCO)c4)oc4cc(OCCO)cc(OCCO)c4c3=O)[C@H](O)[C@@H](O)[C@@H]2O)[C@H](O)[C@H](O)[C@H]1O` [5,7, 3', 4'-tetra-O-hydroxyethyl rutin], which “inhibition of aldose reductase” value (aldose reductase [1]) is on record?
Its value is “practically inactive”.

With `C[C@@H]1O[C@@H](OC[C@H]2O[C@@H](Oc3c(-c4ccc(OCCO)c(OCCO)c4)oc4cc(OCCO)cc(O)c4c3=O)[C@H](O)[C@@H](O)[C@@H]2O)[C@H](O)[C@H](O)[C@H]1O` [7, 3', 4'-tri-O-hydroxyethyl rutin] as the compound, how does the “inhibition of aldose reductase” value (aldose reductase [1]) read?
Its value is “practically inactive”.
